System: swine muscle cells
Experiment: Excipient testing in pigs: X-gal staining of muscle after IM injection of β galactosidase plasmid DNA with excipient
Format: in vivo
Settings: excipient combined with plasmid DNA containing a β galactosidase gene; conclusion
Experimental: Solutions of sucrose (3-7%), DMSO (18-22%), Tween 80 (0.03-0.07%), or E. coli recombinant modified labile toxin (rmLT) (23-27 ug/dose) can be formulated at the desired final concentration in 150 mM sodium phosphate, pH 7.2, containing 1 mg/ml of the plasmid DNA of interest. Solutions can be assembled by dissolving the excipients and plasmid DNA in 150 mM sodium phosphate, pH 7.2 at the desired concentration. Alternatively, the preparations can be prepared as sub-solution, at twice their final concentration in 150 mM sodium phosphate, pH 7.2, and then mixed in equal volumes immediately prior to administration. The SEPA-DNA solution is prepared by adding 1 part of the respective DNA solution, at 5 mg/ml, to 4 parts SEPA.
Table 1 contains the scoring results of X-gal staining in swine muscles 5 days following injection of the various DNA and excipients solutions.
Each pig received a total of 6 injections. All injections administered in the longissimus dorsi muscle (3/side). Injections were approximately 2.5″ lateral to the spine. On each side of the pig, one site was located at approximately the last rib, and the two others were at approximately 6″ and 12″ cranial (towards the nose) from the last rib. Hair was clipped in an area approximately 1″ square to aid identification of injection sites. Injections were made in the center of each shaved area, at approximately 90′ angle to the skin surface. The pigs were restrained briefly in a self-locking head catch chute and the test article administered IM using a 1.5″ long 18 gauge needle attached to a 3 ml syringe. Each test article (treatment) was administered in a total of 3 injection sites (each on a different pig). The total volume of each injection was 1 ml.
Pigs were euthanized 5 days following administration of the respective DNA and excipient solution. A section of tissue approximately 1″ cubed, surrounding the point of entry of the needle, was excised. […] The amount of staining was determined by visual observation using a subjective scale from “No Staining” through a gradation to “Yes++++”. […]

Row | Compound | DNA uptake by swine muscle cells, as indicated by tissue staining
1 | OC[C@H]1O[C@@](CO)(O[C@H]2O[C@H](CO)[C@@H](O)[C@H](O)[C@H]2O)[C@@H](O)[C@@H]1O [5% Sucrose, sucrose] | enhanced DNA uptake
2 | C[S+](C)[O-] [20% Dimethyl sulfoxide, dimethyl sulfoxide] | enhanced DNA uptake
3 | CCCCCCCCCC1OCCO1 [SEPA solution, 2-n-Nonyl-1,3-dioxolane] | enhanced DNA uptake

Source: patent publication US20050009770A1, “Use of excipients to increase DNA uptake by swine muscle cells” (priority 2002, published 2005)
